This note sets out measurements from patent US9303015B2, “Heteroaryl linked quinolinyl modulators of RORγt” (Janssen Pharmaceutica NV, priority 2012, dated 2016).

For orientation: IC50 means the point on the concentration scale where inhibition reaches its midpoint. A high value points to lower potency. Usually inhibition stands for the change of the read-out against control, counted positive when it falls.

In assay [1] the test system is IL-17 production by CD4 T cells. Briefly: Human Th17 assay. Format: cell-based. The settings on record: IL-17 in supernatant after 3 days, human CD4+ T cells under Th17 differentiation. The source says:
The human Th17 assay tests the effect of RORγt modulatory compounds on IL-17 production by CD4 T cells under conditions which favor Th17 differentiation.
Total CD4^+ T cells were isolated from the peripheral blood mononuclear cells (PBMC) of healthy donors using a CD4^+ T cell isolation kit II, following the manufacturer's instructions (Miltenyi Biotec). Cells were resuspended in a medium of RPMI-1640 supplemented with 10% fetal bovine serum, penicillin, streptomycin, glutamate, and β-mercaptoethanol and were added to 96-well plates at 1.5×10^5 per 100 μL per well. 50 μL of compound at titrated concentrations in DMSO were added into each well at final DMSO concentration at 0.2%. Cells were incubated for 1 hour, then 50 μL of Th17 cell differentiation medium was added to each well. The final concentrations of antibodies and cytokines (R&D Systems) in differentiation medium were: 3×10^6/mL anti-CD3/CD28 beads (prepared using human T cell activation/expansion kit, Miltenyi Biotec), 10 μg/mL anti-IL4, 10 μg/mL anti-IFNγ, 10 ng/mL IL113, 10 ng/mL IL23, 50 ng/mL IL6, 3 ng/mL TGFβ and 20 U/mL IL2. Cells were cultured at 37° C. and 5% CO2 for 3 days. Supernatants were collected and the accumulated IL-17 in culture was measured by using MULTI-SPOT® Cytokine Plate following manufacture's instruction (Meso Scale Discovery). The plate was read using Sector Imager 6000, and IL-17 concentration was extrapolated from the standard curve. The IC50s were determined by GraphPad.

Another assay deals with human RORγt LBD (Homo sapiens (Human), UniProt P51449). Nature of the assay: RORγt reporter assay (GAL4-RORγt LBD luciferase, HEK293T cells). Type of assay: cell-based. The note with it: for inhibition at 6 µM: HEK-293T, read-out: RORγt reporter Assay, % inhibition @ 6 μM, 6 μM, HEK293T cells; for RORγt reporter Assay, % inhibition @ 6 μM: HEK293T cells. The source says: A reporter assay was used to test functional activity of RORγt modulatory compounds on transcriptional activation driven by the RORγt LBD. Cells used in the assay were co-transfected with two constructs. The first construct, pBIND-RORγt LBD, contained the wild type human RORγt LBD fused to the DNA binding domain of the GAL4 protein. The second construct, pGL4.31 (Promega Cat no. C935A), contained multiple GAL4 responsive DNA elements upstream of firefly luciferase. […] The mutant construct was called pBIND-RORγt-AF2. […] The pBIND vector contains the GAL4 DNA Binding Domain (GAL4 DBD) and the renilla luciferase gene under control of the SV40 promoter. Renilla luciferase expression serves as a control for transfection efficiency and cell viability.
The reporter assay was performed by transiently transfecting HEK293T cells with 5 μg of pBIND-RORγt LBD or pBIND-RORγt LBD-AF2 and 5 μg pGL4.31 (Promega Cat no. C935A) using Fugene 6 (Invitrogen Cat no. E2691) at a 1:6 ratio of DNA: Fugene 6 in a T-75 flask in which cells were at least 80% confluent. Twenty four hours after bulk transfection, cells were plated into 96-well plates at 50,000 cells/well in phenol-red free DMEM containing 5% Lipid Reduced FCS and Pen/Strep. Six hours after plating, cells were treated with compounds for 24 hours. Media was removed and cells were lysed with 50 μL 1x Glo Lysis Buffer (Promega). Dual Glo Luciferase Reagent (50 μL/well) was then added and firefly luciferase luminescence was read on an Envision after a ten minute incubation. Finally, Stop and Glo reagent (50 μL/well) was added and renilla luciferase luminescence was read on an Envision after a ten minute incubation. To calculate the effect of compounds on RORγt activity, the ratio of firefly to renilla luciferase was determined and plotted against compound concentration. Agonist compounds increase RORγt-driven luciferase expression, and antagonist or inverse agonist compounds decrease luciferase expression.
A general note: Reporter assays use an easily measured gene product as a stand-in for the process of interest.

Where a name gives a salt, the structure may show the parent alone.

Sequence of human RORγt LBD (P51449 258-518): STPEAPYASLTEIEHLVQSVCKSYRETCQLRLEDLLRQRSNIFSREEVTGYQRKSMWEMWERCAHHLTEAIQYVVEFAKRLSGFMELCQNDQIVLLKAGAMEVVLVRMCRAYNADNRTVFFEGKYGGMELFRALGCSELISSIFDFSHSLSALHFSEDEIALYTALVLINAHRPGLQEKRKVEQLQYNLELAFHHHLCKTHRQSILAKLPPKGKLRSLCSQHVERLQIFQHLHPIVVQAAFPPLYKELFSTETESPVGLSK

In assay [1] (Homo sapiens, CD4+ T, 72 h), `CCN(CC)c1nc2ccc(C(O)(c3ccc(OC)nc3)c3cncn3C)cc2c(Cl)c1Oc1ccccc1` (single isomer, unassigned) [Example 5b, (4-Chloro-2-(diethylamino)-3-phenoxyquinolin-6-yl)(6-methoxypyridin-3-yl)(1-methyl-1H-imidazol-5-yl)methanol] returned an IC50 of 0.085 µM. Also, on human RORγt LBD, the inhibition at 6 µM amounted to 98%.
As to `CCN(CC)c1nc2ccc(C(O)(c3ccc(C(F)(F)F)nc3)c3cncn3C)cc2c(Cl)c1Oc1ccccc1` (single isomer, unassigned) [Example 6b, (4-Chloro-2-(diethylamino)-3-phenoxyquinolin-6-yl)(1-methyl-1H-imidazol-5-yl)(6-(trifluoromethyl)pyridin-3-yl)methanol], half-maximal inhibition in assay [1] (IC50) was put at 0.05 µM. In addition, the inhibition at 6 µM at human RORγt LBD came out at 93%.
In the case of `CCOc1nc2ccc(C(O)(c3ccc(C(F)(F)F)nc3)c3cncn3C)cc2c(C(F)(F)F)c1Oc1ccc(Cl)cc1` (single isomer, unassigned) [Example 25b, (3-(4-Chlorophenoxy)-2-ethoxy-4-(trifluoromethyl)quinolin-6-yl)(1-methyl-1H-imidazol-5-yl)(6-(trifluoromethyl)pyridin-3-yl)methanol], in assay [1] (Homo sapiens, CD4+ T, 72 h), the IC50 is 0.44 µM. The “RORγt reporter Assay, % inhibition @ 6 μM” value on human RORγt LBD is 92%.
For `CCN(CC)c1nc2ccc(C(O)(c3ccc(C(F)(F)F)nc3)c3cncn3C)cc2c(Cl)c1Oc1ccc(F)cc1` (single isomer, unassigned) [Example 9c], half-maximal inhibition in assay [1] (IC50) was put at 0.092 µM. For the same compound, at human RORγt LBD, the “RORγt reporter Assay, % inhibition @ 6 μM” value is listed as 84%.
`Cn1cncc1C(O)(c1ccc(C(F)(F)F)nc1)c1ccc2nc(N3CCC3)c(Oc3ccc(C#N)cc3)c(Cl)c2c1` (single isomer, unassigned) [Example 31c, 4-((2-(Azetidin-1-yl)-4-chloro-6-(hydroxy(1-methyl-1H-imidazol-5-yl)(6-(trifluoromethyl)pyridin-3-yl)methyl)quinolin-3-yl)oxy)benzonitrile] returned an IC50 in assay [1] of 0.017 µM.
In the case of `CCN(CC)c1nc2ccc(C(O)(c3ccc(C(F)(F)F)nc3)c3cncn3C)cc2c(C(F)(F)F)c1Oc1ccc(Cl)cc1` (centres unmarked) [Example 27a, (3-(4-Chlorophenoxy)-2-(diethylamino)-4-(trifluoromethyl)quinolin-6-yl)(1-methyl-1H-imidazol-5-yl)(6-(trifluoromethyl)pyridin-3-yl)methanol], the IC50 in assay [1] (Homo sapiens, CD4+ T, 72 h) came out at 0.18 µM. For the same compound, on human RORγt LBD, the inhibition at 6 µM was determined as 89%.
In assay [1], `Cn1cncc1C(O)(c1ccc(C(F)(F)F)nc1)c1ccc2nc(N3CCC3)c(Oc3ccc(Cl)cc3)c(Cl)c2c1` (single isomer, unassigned) [Example 30c, (2-(Azetidin-1-yl)-4-chloro-3-(4-chlorophenoxy)quinolin-6-yl)(1-methyl-1H-imidazol-5-yl)(6-(trifluoromethyl)pyridin-3-yl)methanol] gave an IC50 of 0.02 µM. Besides, on human RORγt LBD, the “RORγt reporter Assay, % inhibition @ 6 μM” value is on record as 97%.
In turn, `CCN(CC)c1nc2ccc(C(O)(c3ccc(OC)nc3)c3cncn3C)cc2c(Cl)c1Oc1ccccc1` (centres unmarked) [Example 5a, (4-Chloro-2-(diethylamino)-3-phenoxyquinolin-6-yl)(6-methoxypyridin-3-yl)(1-methyl-1H-imidazol-5-yl)methanol] yielded an IC50 in assay [1] (Homo sapiens, CD4+ T, 72 h) of 0.13 µM. For the same compound, at human RORγt LBD, the inhibition at 6 µM amounted to 104%.
Taken in the same sequence, the figures for `CCN(CC)c1nc2ccc(C(O)(c3ccc(OC)nc3)c3cncn3C)cc2c(C(F)(F)F)c1Oc1ccc(Cl)cc1` (centres unmarked) [Example 28, (3-(4-Chlorophenoxy)-2-(diethylamino)-4-(trifluoromethyl)quinolin-6-yl)(6-methoxypyridin-3-yl)(1-methyl-1H-imidazol-5-yl)methanol.TFA] were 0.12 µM and 99%.
On the same counts, the results for `Cn1cncc1C(O)(c1ccc(Cl)cc1)c1ccc2nc(C#N)c(Oc3ccccc3)c(Cl)c2c1` (centres unmarked) [Example 19, 4-Chloro-6-((4-chlorophenyl)(hydroxy)(1-methyl-1H-imidazol-5-yl)methyl)-3-phenoxyquinoline-2-carbonitrile.TFA] are 0.17 µM and 85%.
Taken in the same sequence, the figures for `CCN(CC)c1nc2ccc(C(O)(c3ccc(C(F)(F)F)nc3)c3cncn3C)cc2c(Cl)c1Oc1ccccc1` (centres unmarked) [Example 6a, (4-Chloro-2-(diethylamino)-3-phenoxyquinolin-6-yl)(1-methyl-1H-imidazol-5-yl)(6-(trifluoromethyl)pyridin-3-yl)methanol] were 0.096 µM and 102%.
Take `COc1ccc(C(O)(c2ccc3nc(N(C)C)c(Oc4ccccc4)c(Cl)c3c2)c2cncn2C)cn1` (centres unmarked) [Example 17, (4-Chloro-2-(dimethylamino)-3-phenoxyquinolin-6-yl)(6-methoxypyridin-3-yl)(1-methyl-1H-imidazol-5-yl)methanol]: the IC50 in assay [1] (Homo sapiens, CD4+ T, 72 h) amounted to 0.11 µM. In addition, on human RORγt LBD, the inhibition at 6 µM is 99%.
Taken in the same sequence, the figures for `CCN(CC)c1nc2ccc(C(O)(c3cncs3)c3cncn3C)cc2c(Cl)c1Oc1ccccc1` (centres unmarked) [Example 8, (4-Chloro-2-(diethylamino)-3-phenoxyquinolin-6-yl)(1-methyl-1H-imidazol-5-yl)(thiazol-5-yl)methanol.TFA] were 0.048 µM and 95%.
Taken in the same sequence, the figures for `Cn1cncc1C(O)(c1ccc(Cl)cc1)c1ccc2nc(N3CCC3)c(Oc3ccc(C#N)cc3)c(Cl)c2c1` (single isomer, unassigned) [Example 32b, 4-((2-(Azetidin-1-yl)-4-chloro-6-((4-chlorophenyl)(hydroxyl)(1-methyl-1H-imidazol-5-yl)methyl)quinolin-3-yl)oxy)benzonitrile] were 0.11 µM and 101%.
Take `CCOc1nc2ccc(C(O)(c3ccc(Cl)cc3)c3cncn3C)cc2c(Cl)c1Oc1ccccc1` (single isomer, unassigned) [Example 2b]: the IC50 in assay [1] stood at 0.66 µM. For the same compound, the inhibition at 6 µM on human RORγt LBD was 92%.
`Cn1cncc1C(O)(c1ccc(Cl)cc1)c1ccc2nc(N3CCC3)c(Oc3ccc(C#N)cc3)c(Cl)c2c1` (single isomer, unassigned) [Example 32c, 4-((2-(Azetidin-1-yl)-4-chloro-6-((4-chlorophenyl)(hydroxyl)(1-methyl-1H-imidazol-5-yl)methyl)quinolin-3-yl)oxy)benzonitrile] returned an IC50 in assay [1] of 0.056 µM. Besides, at human RORγt LBD, the “RORγt reporter Assay, % inhibition @ 6 μM” value worked out at 101%.
In turn, `Cn1cncc1C(O)(c1ccc(C(F)(F)F)nc1)c1ccc2nc(N3CCC3)c(Oc3ccc(C#N)cc3)c(Cl)c2c1` (single isomer, unassigned) [Example 31b, 4-((2-(Azetidin-1-yl)-4-chloro-6-(hydroxy(1-methyl-1H-imidazol-5-yl)(6-(trifluoromethyl)pyridin-3-yl)methyl)quinolin-3-yl)oxy)benzonitrile] returned an IC50 in assay [1] of about 0.1 µM.
`Cn1cncc1C(O)(c1ccc(C(F)(F)F)nc1)c1ccc2nc(N3CCCC3)c(Oc3ccc(C#N)cc3)c(Cl)c2c1` (centres unmarked) [Example 33, 4-((4-Chloro-6-(hydroxy(1-methyl-1H-imidazol-5-yl)(6-(trifluoromethyl)pyridin-3-yl)methyl)-2-(pyrrolidin-1-yl)quinolin-3-yl)oxy)benzonitrile] had an IC50 in assay [1] (Homo sapiens, CD4+ T, 72 h) of 0.088 µM.
Still for that read-out and setting: the same measure for `CCN(c1ccccc1)c1c(Cl)nc2ccc(C(O)(c3cccnc3)c3cccc(Cl)c3)cc2c1Cl` (centres unmarked) [Example 39, (3-Chlorophenyl)(2,4-dichloro-3-(ethyl(phenyl)amino)quinolin-6-yl)(pyridin-3-yl)methanol]: over 6 µM; for `CN(c1ccccc1)c1c(Cl)nc2ccc(C(O)(c3cccnc3)c3cccc(Cl)c3)cc2c1Cl` (centres unmarked) [Example 35, (3-Chlorophenyl)(2,4-dichloro-3-(methyl(phenyl)amino)quinolin-6-yl)(pyridin-3-yl)methanol]: about 1 µM.
